For 98 molecules, LC retention time results are on record in the RepoRT retention time repository (doi:10.1038/s41596-020-0341-5).

Each structure is given as a SMILES string.

The nature of this data set: RP, Waters ACQUITY UPLC BEH C8, 100 × 2.1 mm, 1.7 µm, 50 °C, 0.35 mL/min, estimated dead time 0.63 min; A: water + 0.1% formic acid; B: acetonitrile + 0.1% formic acid; gradient (min/%B) 0/5 1/5 24/100 28/100. The note with it: stereoisomer not certain.

Consider `CCCCCCC(N)C(=O)O` (stereo not drawn), for which the LC retention time is 0.8 min.
In the case of `CCCCC=CC=CCCCCCC(=O)OC(CC(=O)O)C[N+](C)(C)C` (stereo not drawn) it was 11.9 min; in that of `CC(C)CCCC(C)C1CCC2C3CCC4=CC(=O)CCC4(C)C3CCC12C` (stereo not drawn), 21.8 min; in that of `CC(C)CC(NC(=O)CCC([NH3+])C(=O)[O-])C(=O)[O-]` (stereo not drawn), 3.05 min.
As for `O=C(CO)CO`, the LC retention time was 1.6 min.
Take `CCCCCCCCC=CCCCCCCCC(=O)NCCO`: the LC retention time is 16.9 min.
On to `NCCc1c[nH]c2ccc(O)cc12`, for which the LC retention time is 1.02 min.
Turning to `CCC=CCC=CCC=CCCCCCCCC(=O)O`, the LC retention time was 17.1 min.
To `Cn1c(=O)[nH]c2ncn(C)c2c1=O` belongs 2.28 min; to `NC(Cc1ccccc1)C(=O)O` (stereo not drawn), 1.63 min.
To `Nc1ccccc1C(=O)CC(N)C(=O)O` (stereo not drawn) belongs 1.53 min; to `CCCCCCCCCCCCCCCC(O)C(N)CO` (stereo not drawn), 12.6 min; to `CCCCOC(=O)c1ccccc1C(=O)OCCCC`, 15.7 min.
To `CCCCCCC=CCCCC(=O)OC(CC(=O)O)C[N+](C)(C)C` (stereo not drawn) belongs 11.4 min; to `CCCCCC=CCC=CCCCCCCCC(=O)OCC(O)CO` (stereo not drawn), 17 min.
On to `NC(Cc1c[nH]c2ccccc12)C(=O)O` (stereo not drawn), for which the LC retention time was 2.47 min.
In the case of `NN1CCOC1=O` it was 1.6 min; in that of `CCCC=CCCC(=O)OC(CC(=O)O)C[N+](C)(C)C` (stereo not drawn), 6.8 min.
To `O=C(O)C(O)Cc1c[nH]c2ccccc12` (stereo not drawn) belongs 5.17 min.
To `CCCCCCCCC=CCC=CCCC(=O)OC(CC(=O)O)C[N+](C)(C)C` (stereo not drawn) belongs 13.2 min.
Consider `CCCCCCCCC=CCCCCCCCC(N)=O`, for which the LC retention time is 17.4 min.
For the molecule `CCCCCCCCCCCCCCCCCCOCC(O)COP(=O)([O-])OCC[N+](C)(C)C` (stereo not drawn), the LC retention time was 15.3 min.
In the case of `CC(=O)CCC=C(C)CCC=C(C)CCC=C(C)C` it was 17.9 min.
For `O=C(O)C1CCCN1` (stereo not drawn), the LC retention time was 0.9 min.
To `CCCCCCCCCCCCCCCCCCCCCCCC(=O)OC(CC(=O)O)C[N+](C)(C)C` (stereo not drawn) belongs 19 min; to `O=C(O)CCc1c[nH]c2ccccc12`, 7.33 min.
In the case of `CCCCCCCCCCCCCCCCCC(N)=O` it was 18.4 min; in that of `CCC=CCC=CCC=CCC=CCC=CCCCC(=O)O`, 18.1 min; in that of `CC(C)(CO)C(O)C(=O)NCCC(=O)O` (stereo not drawn), 1.92 min.
To `CCCCCCC=CCCCCCCCCCC(=O)O` belongs 18.9 min; to `CCCCCCCCC(=O)OC(CC(=O)O)C[N+](C)(C)C` (stereo not drawn), 8.62 min.
`CC(C)C1=CC2=CCC3C(C)(C(=O)O)CCCC3(C)C2CC1` (stereo not drawn): the LC retention time is 17.1 min.
On to `CCCCCCCCCCCCCC=CC(O)C(N)COP(=O)(O)O` (stereo not drawn), for which the LC retention time was 13 min.
With `CC(CCC(=O)NCC(=O)O)C1CCC2C3C(O)C(O)C4CC(O)CCC4(C)C3CCC12C` (stereo not drawn), the LC retention time is 9.97 min.
In the case of `O=c1[nH]cnc2nc[nH]c12` it was 1.02 min; in that of `CCCCCCCCCCCCCCC(=O)OC(CC(=O)O)C[N+](C)(C)C` (stereo not drawn), 13.8 min.
As for `CCCCCCCCCCCCCCCCCCCC(=O)OC(CC(=O)O)C[N+](C)(C)C` (stereo not drawn), the LC retention time was 17.1 min.
Consider `CCCCCCC=CCCCCCCCCCCOCC(O)COP(=O)([O-])OCC[N+](C)(C)C` (stereo not drawn), for which the LC retention time is 14.4 min.
`CCCCCCCCCCCCCCC=CCCCCCCCCCC(=O)OC(CC(=O)O)C[N+](C)(C)C` (stereo not drawn): the LC retention time is 19.1 min.
As for `CCCCCCCCCCCCCCCCCCC(=O)OCC(O)COP(=O)([O-])OCC[N+](C)(C)C` (stereo not drawn), the LC retention time is 16.8 min.
With `CC(CCC(=O)NCC(=O)O)C1CCC2C3CCC4CC(O)CCC4(C)C3CC(O)C12C` (stereo not drawn), the LC retention time was 11.8 min.
In the case of `CSCCC(N)C(=O)O` (stereo not drawn) it was 1.02 min; in that of `CCCCC=CCCCCCCC(=O)OC(CC(=O)O)C[N+](C)(C)C` (stereo not drawn), 11.8 min; in that of `CCCCCC=CC=CCCCCCCCCC(=O)OC(CC(=O)O)C[N+](C)(C)C` (stereo not drawn), 14.4 min.
Take `CCCCC=CCCC(=O)OC(CC(=O)O)C[N+](C)(C)C` (stereo not drawn): the LC retention time is 7.65 min.
In the case of `Oc1ccc2[nH]ccc2c1` it was 3.23 min; in that of `CCCCCC=CCC=CCC=CCC=CCCCC(=O)O`, 17.9 min; in that of `C[N+](C)(C)CC(O)CC(=O)[O-]` (stereo not drawn), 0.767 min.
In the case of `CCCCCCCCCCCCCC(=O)OC(CC(=O)O)C[N+](C)(C)C` (stereo not drawn), the LC retention time is 13.3 min.
For the molecule `CC(C)CC(NC(=O)C1CCCN1)C(=O)O` (stereo not drawn), the LC retention time was 1.12 min.
In the case of `Cc1cnc2ccccc2c1` it was 2.47 min.
To `CCCCCC=CCC=CCC=CCCCCCCC(=O)OCC(COP(=O)([O-])OCC[N+](C)(C)C)OC(=O)CCCCCCCCCCCCC` (stereo not drawn) belongs 20.2 min.
For the molecule `O=C(O)C(O)c1ccc(O)c(O)c1` (stereo not drawn), the LC retention time is 13.9 min.
With `CC(CCC(=O)O)C1CCC2C3CCC4CC(O)CCC4(C)C3CC(O)C12C` (stereo not drawn), the LC retention time was 13.3 min.
To `CCCCCCCCC=CCCCCCCCCCCCC(N)=O` belongs 18.8 min.
For the molecule `CCCCCCC=CCCCCCCCCCC(=O)OC(CC(=O)O)C[N+](C)(C)C` (stereo not drawn), the LC retention time is 15.2 min.
`CCC=CCC=CCC=CCC=CCC=CCC=CCCC(=O)O`: the LC retention time is 17.8 min.
On to `CCCCCCCCCCCCCCCCCCCCCCCCCC(=O)OC(CC(=O)O)C[N+](C)(C)C` (stereo not drawn), for which the LC retention time was 19.8 min.
In the case of `CCCCCCCCC=CCCCCCC(=O)OC(CC(=O)O)C[N+](C)(C)C` (stereo not drawn) it was 13.9 min.
In the case of `O=Cc1ccc(O)cc1` it was 1.03 min.
To `O=CCC(O)C(O)C(O)CO` (stereo not drawn) belongs 0.783 min; to `O=C(O)C=Cc1ccccc1`, 1.6 min.
With `CCCCCCCCCCCCCCCCCCCCCC(=O)OC(CC(=O)O)C[N+](C)(C)C` (stereo not drawn), the LC retention time was 18.1 min.
In the case of `CCCCCCCCC=CCCCCCCCCCC(=O)O` it was 20.1 min; in that of `Cn1cccc1-c1cccnc1`, 2.47 min; in that of `CCCCCC=CCCC(=O)OC(CC(=O)O)C[N+](C)(C)C` (stereo not drawn), 9.35 min.
Turning to `CC(=O)Nc1ccc(OC2OC(C(=O)O)C(O)C(O)C2O)cc1` (stereo not drawn), the LC retention time was 1.22 min.
For the molecule `CC(C)NCC(O)COc1ccc(CC(N)=O)cc1` (stereo not drawn), the LC retention time is 2.03 min.
Take `CCCC(=O)OC(CC(=O)O)C[N+](C)(C)C` (stereo not drawn): the LC retention time was 2.28 min.
To `NC(Cc1ccccc1)C(=O)N1CCCC1C(=O)O` (stereo not drawn) belongs 4.18 min; to `Cc1cc2nc3c(=O)[nH]c(=O)nc-3n(CC(O)C(O)C(O)CO)c2cc1C` (stereo not drawn), 3.85 min; to `CCCCC=CCCCCCCCC(=O)OC(CC(=O)O)C[N+](C)(C)C` (stereo not drawn), 12.7 min.
`CCn1cc(C(=O)O)c(=O)c2ccc(C)nc21`: the LC retention time is 7.7 min.
Consider `CCCCCCCCCCCCCCCC(N)=O`, for which the LC retention time was 16.9 min.
In the case of `CCCCCC=CCC=CCC=CCCCCCCC(=O)OCC(O)COP(=O)([O-])OCC[N+](C)(C)C` (stereo not drawn) it was 15.9 min; in that of `C=CC1=C(C)C(C=c2[nH]c(=Cc3[nH]c(C=C4NC(=O)C(C)=C4C=C)c(C)c3CCC(=O)O)c(CCC(=O)O)c2C)=NC1=O`, 10.7 min; in that of `O=C(O)C1CCCCN1` (stereo not drawn), 0.817 min.
To `CCCCCCCCCCCCCCCC(=O)NCCO` belongs 16.3 min; to `CCCCCCC=CCCCCCCCC(=O)O`, 17.4 min; to `CCCCCCCCC=CCCCCCCCCCC(=O)OC(CC(=O)O)C[N+](C)(C)C` (stereo not drawn), 16.3 min.
In the case of `CCCCC(=O)OC(CC(=O)O)C[N+](C)(C)C` (stereo not drawn) it was 3.7 min.
Regarding `CC(C)CCCC(C)C1CCC2C3C(=O)C=C4CC(O)CCC4(C)C3CCC12C` (stereo not drawn), the LC retention time was 19.4 min.
For `CCC=CCC=CCC=CCC=CCC=CCCCC(=O)OCC(COP(=O)([O-])OCC[N+](C)(C)C)OC(=O)CCCC=CCC=CCC=CCCCCCCCC` (stereo not drawn), the LC retention time was 22 min.
In the case of `CC(C)CCCCCOC(=O)c1ccccc1C(=O)OCCCCCC(C)C` it was 20.8 min; in that of `Nc1nc2ccc(C(=O)c3ccccc3)cc2[nH]1`, 5.28 min; in that of `NC(Cc1ccc(O)cc1)C(=O)O` (stereo not drawn), 1.03 min.
In the case of `CC12CCC(=O)C=C1CCC1C2C(O)CC2(C)C1CCC2(O)C(=O)CO` (stereo not drawn), the LC retention time is 7.77 min.
As for `Cn1cnc2c(ncn2C2OC(CO)C(O)C2O)c1=N` (stereo not drawn), the LC retention time is 1 min.
To `CCC=CCC=CCCC(=O)OC(CC(=O)O)C[N+](C)(C)C` (stereo not drawn) belongs 8.58 min.
To `CCCCCCCCCCCCCCCC(=O)OCC(O)COP(=O)([O-])OCC[N+](C)(C)C` (stereo not drawn) belongs 14.3 min; to `CCCCCCCCOC(=O)c1ccccc1C(=O)OCCCCCCCC`, 21.4 min.
In the case of `NC(=O)CCC(NC(=O)Cc1ccccc1)C(=O)O` (stereo not drawn) it was 3.67 min; in that of `CCCCCC=CCC=CCC=CCCCCCCC(=O)O`, 18.4 min; in that of `CC(=O)Nc1ccc(O)cc1`, 1.98 min.
`NC(Cc1ccccc1)C(=O)NC(Cc1ccccc1)C(=O)O` (stereo not drawn): the LC retention time was 5.35 min.
In the case of `CCCCCCCCCCCCCCCC(=O)O` it was 18.4 min; in that of `O=C(O)c1ccccc1O`, 4.47 min.
`C1CCNC1`: the LC retention time is 1.03 min.
